The source of these data is patent publication US7378419B2, “9-amino-podophyllotoxin derivatives, method for the production thereof and pharmaceutical compositions containing said derivatives” (Les Laboratoires Servier, priority 2003, dated 2008).

Series [1] has as its system L1210 cells. Kind of series: Action on the cell cycle (G2+M accumulation). It is filed as cell-based, murine. The note with it: L1210, after 21 hours, concentration of 250 nM (control: 20%). As to the method: The L1210 cells are incubated for 21 hours at 37° C. in the presence of various concentrations of the products tested. The cells then are fixed with 70% ethanol (v/v), washed twice in PBS and incubated for 30 minutes at 20° C. in PBS containing 100 μg/ml of RNase and 50 μg/ml of propidium iodide. The results are expressed as a percentage of cells accumulated in phase G2+M after 21 hours compared to the control (control: 20%). The compounds of examples 2 and 4 induce an accumulation of 70% and 81%, respectively, of the cells in phase G2+M after 21 hours at a concentration of 250 nM.

For series [2], the system named is L1210. Kind of series: In vitro cytotoxicity, microculture tetrazolium assay, L1210. It is filed as cell-based. The note with it: L1210 murine leukemia, 48 hours exposure. On the procedure: (§1) Six cell lines were used: • 1 murine leukemia: L1210 • 1 human epidermal carcinoma: KB-3-1 • 1 human pulmonary carcinoma, not small cell: A549 • 1 melanoma: A375 • 1 neuroblastoma: SK-N-MC • 1 fibrosarcoma: HT1080
(§2) The cells are cultivated in complete RPMI 1640 culture medium containing 10% of fetal calf serum, 2 mM of glutamine, 50 U/ml of penicillin, 50 μg/ml of streptomycin and 10 mM of Hepes, pH: 7.4. The cells are distributed in microplates and exposed to cytotoxic compounds for 4 doubling times, which is 48 hours. The number of viable cells is then quantified by a […] assay, the microculture tetrazolium assay (J. Carmichael et al., Cancer Res.; 47, 936-942, (1987)). The results are expressed as IC50, the cytotoxic concentration that inhibits the proliferation of the treated cells by 50%.

In series [3] the test system is A549. The series is described as follows: In vitro cytotoxicity, microculture tetrazolium assay, A549. It is filed as cell-based. The note with it: A549 human pulmonary carcinoma, not small cell, 48 hours exposure. As to the method:
as §1, §2

Series [4] deals with HT1080. The series is described as follows: In vitro cytotoxicity, microculture tetrazolium assay, HT1080. The class given is cell-based. The note with it: Homo sapiens, HT-1080; HT1080 fibrosarcoma, 48 hours exposure. As to the method: as §1, §2
The test system of series [5] is P388 leukemia. The series is described as follows: In vivo anti-tumor activity on P388 leukemia. As to conditions: P388, 50 mg/kg, intravenously on day 1, female BDF1 mice. On the procedure: The P388 line (murine leukemia) was provided by the National Cancer Institute (Frederick, Md., USA). The tumor cells (10^6 cells) were inoculated on day 0 in the peritoneal cavity of female BDF1 mice (Iffa-Credo, France) weighing from 18 to 20 g (groups of 6 animals). The products were administered intravenously on day 1.
(§3) The anti-tumor activity is expressed in T/C %: T/C%=(median survival time of the treated animals)/(median survival time of the control animals)×100

For series [6], the system named is A549 human pulmonary carcinoma. Kind of series: In vivo anti-tumor activity on A549 human pulmonary carcinoma. As to conditions: A549, 3.12 mg/kg.
Excerpt: *Anti-Tumor Activity of the Compounds on P388 Leukemia and on A549 Human Pulmonary Carcinoma:
as §3

Series [7] has as its system KB-3-1. Kind of series: In vitro cytotoxicity, microculture tetrazolium assay, KB-3-1. It is filed as cell-based. The note with it: KB-3-1 human epidermal carcinoma, 48 hours exposure. On the procedure:
as §1, §2

The subject of series [8] is SK-N-MC. Kind of series: In vitro cytotoxicity, microculture tetrazolium assay, SK-N-MC. The class given is cell-based. The note with it: Homo sapiens; SK-N-MC neuroblastoma, 48 hours exposure. As to the method:
as §1, §2

Series [9] deals with A375. The series is described as follows: In vitro cytotoxicity, microculture tetrazolium assay, A375. The note with it: Homo sapiens, A-375; A375 melanoma, 48 hours exposure. The class given is cell-based. As to the method:
as §1, §2

A word on the melting point: it is the temperature of the solid-liquid transition. Regarding `COc1cc([C@@H]2c3cc4c(cc3[C@@H](NC3=CC(=O)N(Cc5ccc(NC(C)=O)cc5)C3=O)[C@H]3COC(=O)[C@H]23)OCO4)cc(OC)c1O`, the melting point is 200 to 204 °C (dec.).

For the compound `COc1cc([C@@H]2c3cc4c(cc3[C@@H](NC3=CC(=O)N(Cc5ccc(NC(C)=O)cc5)C3=O)[C@H]3COC(=O)[C@H]23)OCO4)cc(OC)c1O[Si](C)(C)C(C)(C)C`, the melting point was in the range of 177 to 179 °C.

Take `C=CCN1C(=O)C=C(N[C@@H]2c3cc4c(cc3[C@@H](c3cc(OC)c(O)c(OC)c3)[C@H]3C(=O)OC[C@@H]32)OCO4)C1=O`: the melting point lay within 180 to 183 °C.

The compound `COc1cc([C@@H]2c3cc4c(cc3[C@@H](NC3=C(C)C(=O)N(C)C3=O)[C@H]3COC(=O)[C@H]23)OCO4)cc(OC)c1O` yielded a melting point of 172 to 176 °C.

As a reminder, the IC50 is the point on the concentration scale where inhibition reaches its midpoint. A low value points to greater potency in that assay. On to `COc1cc([C@@H]2c3cc4c(cc3[C@@H](NC3=CC(=O)N(Cc5ccccc5)C3=O)[C@H]3COC(=O)[C@H]23)OCO4)cc(OC)c1O` [Example 4, 3-{[(5S,5aS,8aR,9R)-9-(4-Hydroxo-3,5-dimethoxyphenyl)-8-oxo-5,5a,6,8,8a,9-hexahydrofuro[3′,4′:6,7]naphtho[2,3-d][1,3]dioxol-5-yl]amino}-1-benzyl-1H-pyrrole-2,5-dione], for which the “percentage of cells accumulated in phase G2+M” value in [1] is 81%. In addition, the midpoint of inhibition in series [2], the IC50, lay at 29 nM.

Turning to `COc1cc([C@@H]2c3cc4c(cc3[C@@H](NC3=CC(=O)N(Cc5ccc(C(F)(F)F)cc5)C3=O)[C@H]3COC(=O)[C@H]23)OCO4)cc(OC)c1O`, the melting point lay within 184 to 186 °C.

`COc1cc([C@@H]2c3cc4c(cc3[C@@H](NC3=CC(=O)N(Cc5ccc(F)cc5)C3=O)[C@H]3COC(=O)[C@H]23)OCO4)cc(OC)c1O[Si](C)(C)C(C)(C)C` showed a melting point of 182 to 184 °C.

As a reminder, the T/C is the ratio of treated to control. As to `COc1cc([C@@H]2c3cc4c(cc3[C@@H](NC3=CC(=O)N(C)C3=O)[C@H]3COC(=O)[C@H]23)OCO4)cc(OC)c1O` [Example 2, 3-{[(5S,5aS,8aR,9R)-9-(4-Hydroxy-3,5-dimethoxyphenyl)-8-oxo-5,5a,6,8,8a,9-hexahydrofuro[3′,4′:6,7]naphtho[2,3-d][1,3]dioxol-5-yl]amino}-1-methyl-1H-pyrrole-2,5-dione], the IC50 in series [3] turned out to be 110 nM; in [4], 75.8 nM; in series [7], 66.6 nM; in series [8] it was 106 nM; in series [9] it was 44.2 nM; in [2] (Mus musculus) it was 54 nM. Further, the “percentage of cells accumulated in phase G2+M” value in series [1] is 70%. For the same compound, in series [5], the “T/C (median survival time treated/control x 100)” value is reported as above 575%. Besides, the “animals surviving as of day 60” value in series [5] came out at 50%. The same compound had a T/C in series [6] of 225%.

With `COc1cc([C@@H]2c3cc4c(cc3[C@@H](NC3=CC(=O)N(Cc5ccc(F)cc5)C3=O)[C@H]3COC(=O)[C@H]23)OCO4)cc(OC)c1O`, the melting point lay in the range of 214 to 216 °C.

The compound `COc1cc([C@@H]2c3cc4c(cc3[C@@H](NC3=CC(=O)N(CCCCCC(=O)O)C3=O)[C@H]3COC(=O)[C@H]23)OCO4)cc(OC)c1O` returned a melting point of 150 to 152 °C.
